Laboratory results from patent US20200129922A1, “METHOD OF REDUCING CONCENTRATION OF FLUORINE-CONTAINING COMPOUND IN SAMPLE” (Samsung Electronics Co., Ltd., priority 2018, published 2020).

Columns and labels:
[1] = at 30° C.; cited from earlier work
[2] = Confirmation of solubility of CF4 for phosphonium ionic liquid (headspace CF4 by GC-MS); format: physicochemical; conditions: 5 ml ionic liquid in 60 ml serum bottle, 200 ppm CF4 in upper empty space, 24 hours shaking; control distilled water
Method: 5 ml of a phosphonium ionic liquid was put in a 60 ml glass serum bottle, and CF4 was supplied to the upper empty space at a concentration of 200 ppm based on the volume of the empty space. After air-tightening by closing a lid, the bottle was incubated for 24 hours under shaking. Then, the air in the upper empty space was collected, and a concentration of CF4 was measured using gas chromatography mass-spectrum (GC-MS). Distilled water of the same volume was used as a control group.
The CF4 removal rates in Tables 1 and 2 were calculated from the following Mathematical Equation 1:
CF4 removal rate=[(initial CF4 content−CF4 content after reaction)/initial CF4 content]×100 <Mathematical Equation 1>

Compound	solubility of CF4 in water [1]	CF4 reduction rate (%) [2]
FC(F)(F)F [CF4]	17.1 mg/L	
triethyl octyl phosphonium bis(trifluoromethylsulfonyl)imide [[P2228]^+ [NTf2]^−]		13.9%
trihexyl tetradecyl phosphonium bis(trifluoromethylsulfonyl)imide [[P66614]^+ [NTf2]^−]		10.9%
